In US4311685A, “Assay method and kit” (Burroughs Wellcome Co., priority 1979, dated 1982):

Assay: in vitro
Details: human, plasma

Question: For `CC(C)NCC(O)COc1cccc2ccccc12` (racemic) [propranolol], which fraction unbound at 12 h, 0.07 µM is on record?
Answer: The fraction unbound at 12 h, 0.07 µM was 0.117.
